Test results reported in US20240246972A1, “AZAINDOLE ROCK INHIBITORS” (priority 2022, published 2024).
Converted amounts (≈) assume the structure as drawn.

How the values were obtained:
[1] = 24 hour rat pharmacokinetics; format: in vivo, Sprague-dawley rats; settings: male
PRKX = PRKX (Homo sapiens (Human), UniProt P51817); test: PRKX inhibition assay (HotSpot kit, 33P-ATP); format: biochemical; settings: Table 2B; 10 μM ATP; Compound 1 is geometric mean of multiple experiments
Method: (§1) Compounds as a powder were dissolved in dimethyl sulfoxide to make a 10 mM stock. […] The HotSpot kit employing ^33P-ATP was used with reactions conducted at 10 μM ATP for each tested enzyme. The percent activity relative to DMSO controls for each concentration was then fitted to a curve using GraphPad Prism to determine the IC50. […] Each experiment was run in the same lab with this procedure.

ROCK2 = ROCK2 (Homo sapiens (Human), UniProt O75116); test: ROCK2 inhibition assay (HotSpot kit, 33P-ATP); format: biochemical; settings: 10 μM ATP
[2] = mouse, in vivo, po, 20 mg/kg
P-gp (MDR1) [3] = test: MDCK-MDR1 efflux assay, Experimental Procedure 1; format: in vitro ADME; settings: dog, Table 3A, pH 7.4
Method: MDCK-MDR1 cells grown in tissue culture flasks were trypsinized, suspended in medium, and the suspensions were applied to wells of a Millipore 96 well plate. The cells were allowed to grow and differentiate for five days, feeding at 2-day intervals. For Apical to Basolateral (A→B) permeability, the test article was added to the apical (A) side and amount of permeation was determined on the basolateral (B) side; for Basolateral to Apical (B→A) permeability, the test article was added to the B side and the amount of permeation was determined on the A side. […] Following centrifugation, the supernatant for donor and receiver side samples were analyzed by LC-MS/MS. Data was expressed as permeability (Papp):Papp=(dQ/dt)/(C0A) where dQ/dt is rate of permeation, C0 is initial concentration of test article, and A is the area of monolayer. In bidirectional permeability studies, the Efflux Ratio (Re) was calculated: [formula]

ROCK1 = ROCK1 (Homo sapiens (Human), UniProt Q13464); test: ROCK1 inhibition assay (HotSpot kit, 33P-ATP); format: biochemical; settings: 10 μM ATP
[4] = Kinetic solubility in PBS pH 7.4; format: physicochemical; settings: aqueous buffer, kinetic from dmso stock, PBS pH 7.4, 25° C.
Method: The assay was performed in duplicate.

[5] = 24 hour mouse pharmacokinetics; format: in vivo, B6SJLF1/J mice; settings: for AUC(0-inf) / AUC(0-t) / Cmax / half-life / Tmax: B6SJLF1/J, plasma
Method: Groups 2, 3, 4, 6, and 8: Test article was dissolved in a minimal amount of DMSO (Groups 2, 4, 6, 8: 40-50 μL, Group 3: 100 μL), 0.5% methylcellulose was added to final volume, then solution was sonicated for 2 minutes.
Group 7: Test article was dissolved in 100 μL DMSO, saline was added to final volume, then solution was sonicated for 2 minutes.
Groups 1, 5: The test article was administered as a single dose via slow bolus intravenous administration into a lateral tail vein, with a 27G needle.
Groups 2, 4, 6, 7, 8: The test article was administered as a single dose directly to the stomach by oral gavage.
Group 3: The test article was administered as a single dose in two parts with an approximate 1-2-minute rest between due to volume administered.
Approximately 150 μL of blood was collected by tail nick for the first time point and then the maximal volume by cardiac stick for the second, terminal time point in each mouse. The plasma was spun and separated within 30 minutes of collection and stored frozen at −20° C. until shipment.
Prior to the terminal blood collection, CSF was collected. […] The resulting data is shown in Tables 13, 14, 15, 16 and 17 below.

P-gp (MDR1) [6] = test: MDCK-MDR1 efflux assay, Experimental Procedure 2; format: in vitro ADME; settings: dog, Table 3B, pH 7.4
PKA = PKA (Homo sapiens (Human), UniProt P17612); test: PKA inhibition assay (HotSpot kit, 33P-ATP); format: biochemical; settings: Table 2B; 10 μM ATP; Compound 1 is geometric mean of multiple experiments
Method: as §1

[7] = Sprague-Dawley, in vivo, IV 3 mg/kg
[8] = Sprague-Dawley, in vivo, PO 10 mg/kg
[9] = Table 2B, Compound 1 is geometric mean of multiple experiments

ROCK2, sequence (O75116 whole entry): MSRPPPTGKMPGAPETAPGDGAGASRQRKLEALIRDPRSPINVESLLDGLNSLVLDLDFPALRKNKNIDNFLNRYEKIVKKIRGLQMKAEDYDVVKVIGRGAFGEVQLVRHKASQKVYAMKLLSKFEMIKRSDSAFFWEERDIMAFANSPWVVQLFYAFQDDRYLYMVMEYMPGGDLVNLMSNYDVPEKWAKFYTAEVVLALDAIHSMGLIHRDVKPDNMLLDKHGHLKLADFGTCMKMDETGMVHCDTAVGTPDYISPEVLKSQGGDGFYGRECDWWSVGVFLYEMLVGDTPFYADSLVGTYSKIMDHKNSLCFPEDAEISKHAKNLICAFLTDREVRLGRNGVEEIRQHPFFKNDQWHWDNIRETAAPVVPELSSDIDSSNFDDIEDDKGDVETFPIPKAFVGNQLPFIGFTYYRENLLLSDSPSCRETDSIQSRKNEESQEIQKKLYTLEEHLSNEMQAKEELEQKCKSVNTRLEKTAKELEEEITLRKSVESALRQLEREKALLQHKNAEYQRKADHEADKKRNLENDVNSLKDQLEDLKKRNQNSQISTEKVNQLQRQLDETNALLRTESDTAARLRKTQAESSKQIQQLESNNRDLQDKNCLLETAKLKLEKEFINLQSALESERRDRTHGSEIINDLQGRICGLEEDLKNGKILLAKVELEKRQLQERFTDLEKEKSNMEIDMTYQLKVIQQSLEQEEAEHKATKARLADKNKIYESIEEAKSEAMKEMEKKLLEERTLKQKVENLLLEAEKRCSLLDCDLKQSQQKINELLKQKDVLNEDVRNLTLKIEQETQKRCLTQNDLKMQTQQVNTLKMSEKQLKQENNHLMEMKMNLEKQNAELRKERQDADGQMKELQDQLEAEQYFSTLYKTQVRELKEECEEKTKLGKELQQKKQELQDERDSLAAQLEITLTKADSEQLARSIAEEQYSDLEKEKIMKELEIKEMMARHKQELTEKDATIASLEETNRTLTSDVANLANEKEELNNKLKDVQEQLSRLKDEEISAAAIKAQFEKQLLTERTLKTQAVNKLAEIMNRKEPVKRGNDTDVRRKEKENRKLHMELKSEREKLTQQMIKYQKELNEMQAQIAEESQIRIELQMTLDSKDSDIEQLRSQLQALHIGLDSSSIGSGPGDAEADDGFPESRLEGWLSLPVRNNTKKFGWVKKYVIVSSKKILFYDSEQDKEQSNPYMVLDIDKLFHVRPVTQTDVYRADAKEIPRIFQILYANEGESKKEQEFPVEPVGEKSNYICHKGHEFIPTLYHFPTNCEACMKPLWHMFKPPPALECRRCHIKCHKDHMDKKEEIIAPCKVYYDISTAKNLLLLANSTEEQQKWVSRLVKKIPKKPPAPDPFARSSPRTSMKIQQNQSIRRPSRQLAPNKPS
ROCK1, sequence (Q13464 whole entry): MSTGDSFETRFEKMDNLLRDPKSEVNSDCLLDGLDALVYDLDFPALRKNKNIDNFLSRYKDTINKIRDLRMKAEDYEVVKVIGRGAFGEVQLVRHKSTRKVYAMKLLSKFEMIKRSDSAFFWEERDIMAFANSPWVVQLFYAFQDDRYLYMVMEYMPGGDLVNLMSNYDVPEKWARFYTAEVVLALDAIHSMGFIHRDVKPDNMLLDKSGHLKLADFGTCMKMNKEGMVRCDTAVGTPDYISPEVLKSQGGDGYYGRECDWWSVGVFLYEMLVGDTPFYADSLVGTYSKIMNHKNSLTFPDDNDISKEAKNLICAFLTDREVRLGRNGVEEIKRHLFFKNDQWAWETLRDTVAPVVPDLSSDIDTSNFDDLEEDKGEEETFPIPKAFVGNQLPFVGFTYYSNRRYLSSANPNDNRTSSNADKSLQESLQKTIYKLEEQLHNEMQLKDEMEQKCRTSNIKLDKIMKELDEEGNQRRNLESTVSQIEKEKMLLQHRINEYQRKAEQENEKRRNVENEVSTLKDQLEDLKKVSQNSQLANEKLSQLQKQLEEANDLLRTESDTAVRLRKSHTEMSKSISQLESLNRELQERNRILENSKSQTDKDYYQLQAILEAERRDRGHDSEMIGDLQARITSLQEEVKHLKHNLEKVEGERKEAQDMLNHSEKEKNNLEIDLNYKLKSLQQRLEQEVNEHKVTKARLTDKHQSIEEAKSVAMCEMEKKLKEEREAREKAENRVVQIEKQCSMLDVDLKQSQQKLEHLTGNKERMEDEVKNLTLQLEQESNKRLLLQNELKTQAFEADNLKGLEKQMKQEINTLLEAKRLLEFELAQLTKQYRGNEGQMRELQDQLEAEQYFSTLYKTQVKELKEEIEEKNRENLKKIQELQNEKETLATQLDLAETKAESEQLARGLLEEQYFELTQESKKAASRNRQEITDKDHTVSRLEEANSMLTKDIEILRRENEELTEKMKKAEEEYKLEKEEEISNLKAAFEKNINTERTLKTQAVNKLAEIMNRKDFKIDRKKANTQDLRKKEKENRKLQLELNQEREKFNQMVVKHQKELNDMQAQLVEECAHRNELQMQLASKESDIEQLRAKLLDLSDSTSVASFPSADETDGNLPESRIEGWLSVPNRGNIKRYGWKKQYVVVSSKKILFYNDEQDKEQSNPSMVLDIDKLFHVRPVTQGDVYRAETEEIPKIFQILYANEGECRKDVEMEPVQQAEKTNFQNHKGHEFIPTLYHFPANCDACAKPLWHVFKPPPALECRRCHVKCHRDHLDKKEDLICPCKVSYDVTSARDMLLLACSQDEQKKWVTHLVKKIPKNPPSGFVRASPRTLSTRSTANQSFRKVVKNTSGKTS
PRKX, sequence (P51817 whole entry): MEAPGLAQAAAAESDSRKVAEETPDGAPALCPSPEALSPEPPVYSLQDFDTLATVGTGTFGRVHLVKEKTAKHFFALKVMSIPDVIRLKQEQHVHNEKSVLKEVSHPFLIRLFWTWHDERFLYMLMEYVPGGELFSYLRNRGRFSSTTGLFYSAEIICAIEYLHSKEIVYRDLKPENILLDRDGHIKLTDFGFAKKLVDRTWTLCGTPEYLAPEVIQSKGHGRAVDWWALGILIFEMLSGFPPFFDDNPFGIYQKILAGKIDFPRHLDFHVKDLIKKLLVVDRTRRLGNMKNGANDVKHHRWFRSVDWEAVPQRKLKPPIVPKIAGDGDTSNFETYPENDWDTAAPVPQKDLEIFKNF

In the case of Cn1c(C(=O)NCc2ccccc2F)cc2ccc(-c3cn[nH]c3)nc21 [Compound 1, N-(2-fluorobenzyl)-1-methyl-6-(1H-pyrazol-4-yl)-1H-pyrrolo[2,3-b]pyridine-2-carboxamide], the AUC0-t/D ([1]; IV 3 mg/kg) is reported as 1541 (h*ng/mL)/(mg/kg), the Tlast ([1]; IV 3 mg/kg) is reported as 24 h and the AUC0-t/D ([1]; PO 10 mg/kg) is reported as 261 (h*ng/mL)/(mg/kg). It also gave a Tlast ([1]; PO 10 mg/kg) of 24 h, an AUC(0-inf) [1, 7] of 4650 ng·h/mL and an AUC(0-t) [1, 7] of 4620 ng·h/mL. For the same compound, the Cmax [1, 7] was 5540 ng/mL, the half-life [1, 7] was 5.33 h and the AUC(0-t) [1, 8] was 2610 ng·h/mL. It also gave a Cmax [1, 8] of 409 ng/mL, a Tmax [1, 8] of 2.67 h and a half-life [1, 8] of 3.67 h. For the same compound, the AUC(0-inf) ([1]; Sprague-Dawley, plasma, PO 10 mg/kg) was 2660 ng·h/mL, the IC50 (PRKX) was 31.4 nM and the IC50 (ROCK2; Table 2A) was 2.3 nM. For the same compound, the IC50 (ROCK2; [9]) was 2.7 nM, the “mortality and adverse events” value [2] was “no animals died or had adverse events” and the “plasma level in 24 hours” value [2] was “below the detection limit”. It also gave an efflux ratio at 2 h (P-gp (MDR1) [3]) of 1.46, an IC50 (ROCK1; Table 2A) of 16.4 nM and an IC50 (ROCK1; [9]) of 30.3 nM. It also gave a solubility kinetic at 2 h [4] of 0.64 µM (≈ 0.224 µg/mL), an AUC(0-inf) ([5]; IV 3 mg/kg, male) of 10200 ng·h/mL and an AUC(0-t) ([5]; IV 3 mg/kg, male) of 10100 ng·h/mL. For the same compound, the Cmax ([5]; IV 3 mg/kg, male) was 12200 ng/mL, the half-life ([5]; IV 3 mg/kg, male) was 0.987 h and the AUC(0-t) ([5]; PO 10 mg/kg, female) was 5670 ng·h/mL. It also gave a Cmax ([5]; PO 10 mg/kg, female) of 1110 ng/mL, a Tmax ([5]; PO 10 mg/kg, female) of 1 h and an AUC(0-inf) ([5]; PO 10 mg/kg, male) of 5750 ng·h/mL. The AUC(0-t) ([5]; PO 10 mg/kg, male) was 5350 ng·h/mL, the Cmax ([5]; PO 10 mg/kg, male) was 1040 ng/mL and the Tmax ([5]; PO 10 mg/kg, male) was 1 h. The half-life ([5]; PO 10 mg/kg, male) was 2.72 h, the AUC(0-inf) ([5]; PO 100 mg/kg, male) was 46000 ng·h/mL and the AUC(0-t) ([5]; PO 100 mg/kg, male) was 44100 ng·h/mL. It also gave a Cmax ([5]; PO 100 mg/kg, male) of 4070 ng/mL, a Tmax ([5]; PO 100 mg/kg, male) of 8 h and a half-life ([5]; PO 100 mg/kg, male) of 4.47 h. The AUC0-t/D ([5]; IV 3 mg/kg, male) was 3380 (h*ng/mL)/(mg/kg), the Tlast ([5]; IV 3 mg/kg, male) was 8 h and the AUC0-t/D ([5]; PO 10 mg/kg, female) was 567 (h*ng/mL)/(mg/kg). For the same compound, the Tlast ([5]; PO 10 mg/kg, female) was 24 h, the AUC0-t/D ([5]; PO 10 mg/kg, male) was 535 (h*ng/mL)/(mg/kg) and the Tlast ([5]; PO 10 mg/kg, male) was 12 h. For the same compound, the “Ratio to 10 mg/kg Dose Level, AUC0-t” value ([5]; PO 100 mg/kg vs 10 mg/kg, male) was 8.24, the “Ratio to 10 mg/kg Dose Level, AUC0-∞” value ([5]; PO 100 mg/kg vs 10 mg/kg, male) was 8.00 and the “Ratio to 10 mg/kg Dose Level, Cmax” value ([5]; PO 100 mg/kg vs 10 mg/kg, male) was 3.91. The AUC0-t/D ([5]; PO 100 mg/kg, male) was 441 (h*ng/mL)/(mg/kg), the Tlast ([5]; PO 100 mg/kg, male) was 24 h and the efflux ratio at 2 h, 1 µM (P-gp (MDR1) [6]) was 0.8. The IC50 (PKA) was 238 nM.
With Cc1[nH]ncc1-c1ccc2cc(C(=O)NCc3c(Cl)cccc3C3(O)CC3)[nH]c2n1 [Compound 6, N-(2-chloro-6-(1-hydroxycyclopropyl)benzyl)-6-(5-methyl-1H-pyrazol-4-yl)-1H-pyrrolo[2,3-b]pyridine-2-carboxamide] the efflux ratio at 2 h (P-gp (MDR1) [3]) was 133.
With C[C@H]1O[C@@H](O[C@H]2[C@@H](O)C[C@H](O[C@H]3[C@@H](O)C[C@H](O[C@H]4CC[C@@]5(C)[C@H](CC[C@@H]6[C@@H]5C[C@@H](O)[C@]5(C)[C@@H](C7=CC(=O)OC7)CC[C@]65O)C4)O[C@@H]3C)O[C@@H]2C)C[C@H](O)[C@@H]1O [Digoxin, reference compound] the efflux ratio at 2 h (P-gp (MDR1) [3]) was 28.4.
COc1cccc(CNC(=O)c2cc3ccc(-c4cn[nH]c4)nc3[nH]2)c1 [Comparator 6, N-(3-methoxybenzyl)-6-(1H-pyrazol-4-yl)-1H-pyrrolo[2,3-b]pyridine-2-carboxamide, reference compound] showed an IC50 (PRKX) of 165 nM, an IC50 (ROCK2; [9]) of 0.96 nM and an IC50 (ROCK1; [9]) of 10.2 nM.
O=C(NCc1ccccc1F)c1cc2ccc(-c3cn[nH]c3C(F)(F)F)nc2[nH]1 [Compound 11, N-[(2-Fluorophenyl)methyl]-6-[3-(trifluoromethyl)-2H-pyrazol-4-yl]-1H-pyrrolo[2,3-b]pyridine-2-carboxamide] gave an IC50 (ROCK2; [9]) of 1370 nM and an IC50 (ROCK1; [9]) greater than 1000 nM.
Compound CC(=O)[C@H]1CC[C@H]2[C@@H]3CCC4=CC(=O)CC[C@]4(C)[C@H]3CC[C@]12C [Progesterone, reference compound] has a solubility kinetic at 2 h [4] of 13.3 µM (≈ 4.19 µg/mL).
In the case of Cc1[nH]ncc1-c1ccc2cc(C(=O)NCc3c(Cl)cccc3OC3COC3)[nH]c2n1 [Comparator 3, N-(2-chloro-6-(oxetan-3-yloxy)benzyl)-6-(5-methyl-1H-pyrazol-4-yl)-1H-pyrrolo[2,3-b]pyridine-2-carboxamide, reference compound], the IC50 (PRKX) is reported as 376 nM, the IC50 (ROCK2; Table 2A) is reported as 587 nM and the efflux ratio at 2 h (P-gp (MDR1) [3]) is reported as 256. The IC50 (ROCK1; Table 2A) was greater than 1000 nM and the IC50 (PKA) was 1400 nM.
